Measured values published in patent US6376484B1, “Tetrazole compounds and pharmaceutical agents containing such derivative as an active ingredient” (Ono Pharmaceutical Co., Ltd., priority 1995, dated 2002).

Molecular target: T1, human ICE (IL-1β converting enzyme) (Homo sapiens, UniProt P29466)
T1 sequence (P29466 120-297 limits assumed): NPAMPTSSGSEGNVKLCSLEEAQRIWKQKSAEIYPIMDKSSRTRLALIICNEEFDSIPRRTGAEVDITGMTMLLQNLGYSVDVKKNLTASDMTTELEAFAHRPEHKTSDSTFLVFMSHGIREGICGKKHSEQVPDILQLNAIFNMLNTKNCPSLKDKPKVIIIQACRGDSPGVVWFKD
T1 sequence (P29466 317-404 limits assumed): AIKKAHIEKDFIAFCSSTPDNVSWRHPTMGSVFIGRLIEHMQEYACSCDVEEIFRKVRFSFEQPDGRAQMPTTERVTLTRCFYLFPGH
Experiment: Assay for IL-1β converting enzyme (ICE) inhibition, fluorogenic substrate Ac-Tyr-Val-Ala-Asp-MCA
Assay type: biochemical
Conditions: human ICE solution, 37° C., fluorescence, read-out: IC50, ICE inhibitory activity
Experimental: (1) Assay for IL-1β converting enzyme
The reaction mixture contains, for example, 20 mM of HEPES-NaOH pH7.4, 10 mM of KOH, 1.5 mM of MgCl2, 0.1 mM of EDTA and 10% glycerol. Various concentrations of test compounds (50 μl), human ICE solution (50 μl) and various concentrations of substrate (Ac-Tyr-Val-Ala-Asp-MCA) were mixed and incubated at 37° C. Fluorescence intensity was measured at […].
In the aboved example method,
HEPES is 4-(2-Hydroxyethyl)-1-piperazineethane-sulfonic acid,
EDTA is Ethylenediamine tetraacetate, and
Ac-Tyr-Val-Ala-Asp-MCA is Acetyl-L-tyrosyl-L-valyl-L-alanyl-L-asparaginic acid 4-methyl-coumarinyl-7-amide.

An IC50 of 30 nM was found for CC(C)[C@H](NC(=O)CCc1ccccc1)C(=O)N[C@@H](C)C(=O)NC(CC(=O)O)C(=O)Cn1nnnc1Cc1c(Cl)cccc1Cl (stereo partly drawn) [Example 2(1), N-((N-(3-phenylpropionyl)-L-valyl)-L-alanyl)-3-amino-4-oxo-5-(5-(2,6-dichlorophenylmethyl)tetrazol-1-yl)pentanoic acid] in this work.
